This note sets out measurements from patent US11219625B2, “Inhibitors of N-linked glycosylation and methods using same” (YALE UNIVERSITY, priority 2015, dated 2022).

What all share (format): cell-based
Experiment [1] concerns PC9 cells. The experiment in a line: MTT proliferation assay, PC9. The note with it: PC9, 1 μM tunicamycin. The protocol:
(§1) FIGS. 4A-4H illustrate the finding that NGI-1 blocks RTK driven proliferation. FIG. 4A illustrates western blot analysis of EGFR phosphorylation (Y1173) and gel mobility in PC9 (EGFR-mutant) and A549 (k-ras mutant) NSCLC cells after 10 μM NGI-1 treatment for 24 h. […] Actin expression was used as a control for protein loading. FIG. 4B illustrates MTT assays results of PC9 following treatment with 10 μM NGI-1 or 1 μM tunicamycin for a total of 5 d. Relative proliferation id reported in fold increase from day 0. FIG. 4C illustrates MTT assays results of A549 following treatment with 10 μM NGI-1 or 1 μM tunicamycin for a total of 5 d. Relative proliferation id reported in fold increase from day 0. FIG. 4D illustrates protein phosphorylation profiles of PC9 cells analyzed by phospho-protein array to assess the response of PC9 to 10 μM NGI-1 for 24 h. FIG. 4E illustrates protein phosphorylation profiles of A549 cells analyzed by phospho-protein array to assess the response of A549 to 10 μM NGI-1 for 24 h. […]
(§2) Growth rates were determined by CellTiter 96 NonRadioactive Cell Proliferation Assay (Promega; Madison, Wis. USA) according to the manufacturer's directions. […] Cell numbers were estimated after 0, 3, and 5 days by adding MTT [(3-(4,5-Dimethylthiazol-2-yl)-2,5-diphenyltetrazolium bromide] reagent to the wells 4 hours before taking the spectrophotometric reading (absorbance at 570 nm).
(Tetrazolium assays rely on reduction of a dye to a coloured formazan, in cell work by metabolically active cells.)

Experiment [2] concerns A549 cells. The experiment in a line: Apoptosis by flow cytometry (Annexin-V, 7-AAD), A549. The note with it: A549, NGI-1 10 μM for 2 or 5 days, or Tn 1 μM. The protocol:
(§3) Analysis of apoptosis susceptibility in A549 and PC9 NSCLC cell lines followed treatment with NGI-1 10 μM or Tn 1 μM for 2 days was done by flow cytometry after staining the cells with Annexin-V (early apoptosis) and 7-AAD (viability dye). […] FIG. 9C: Western blot of BIP protein for A549 and PC9 cells after treatment with 10 μM NGI-1 for 6, 12 or 24 h. The expression of GAPDH was used as a loading control.
For orientation: Flow cytometry measures light scatter and fluorescence of single cells or particles in a stream.

Experiment [3] deals with A549 cells. The experiment in a line: MTT proliferation assay, A549. As to conditions: A549, 10 μM NGI-1 or 1 μM tunicamycin. The protocol: as §1, §2
The test system of experiment [4] is lipid linked oligosaccharides (LLOs). The experiment in a line: FACE analysis of lipid linked oligosaccharides. The note with it: FACE, FIG. 2B. As to the method: Fluorophore assisted carbohydrate electrophoresis (FACE) was performed as previously described (Gao, et al., Glycobiology 2002, 12, 353-360; Gao, et al., J Biol Chem 2005, 280, 17901-17909). Control (Ac-Gln-Tyr-Thr-CONH2) and acceptor (Ac-Asn-Tyr-Thr-CONH2) peptides were used for permeabilized cell experiments. Metabolic labeling of Hela cells, transfection of prosaposin (pSAP) and steroid hormone binding globulin (SHBG) vectors, and knockdown of SIT3A and STT3B to monitor N-linked glycosylation knockdown were performed as described (Shrimal, et al., J Cell Biol 2013, 201, 81-95). Western blot analysis was performed as previously described (Bennett, et al., Transl Oncol 2013, 6, 382-391). The following primary antibodies were used: rabbit anti-EGFR (sc-03; Santa Cruz Biotechnology; 1:1000), rabbit anti-phospho (Tyr1173) EGF Receptor (Cell Signaling; 1:1000), rabbit anti-p21 Waf1/Cip1 (12D1; Cell Signaling; 1:1000), rabbit anti-Cyclin D1 (Cell Signaling; 1:1000), mouse anti-β-Actin (8H10D10; Cell Signaling; 1:1000). For phospho-protein array analysis, PC9 and A549 cells were cultured in 6-well plates in serum-containing medium and treated with or without 10 μM NGI-1 for 24 hours. […]

Experiment [5] deals with PC9 cells. Put plainly: Apoptosis by flow cytometry (Annexin-V, 7-AAD), PC9. As to conditions: PC9, NGI-1 10 μM for 2 or 5 days, or Tn 1 μM. As to the method:
as §3

As to tunicamycin [reference compound], the “effect on proliferation, MTT” value in the experiment on PC9 cells [1] and with A549 cells [3] was “immediately blocks proliferation in both cell lines” in each case. For the same substance, the induction of apoptosis entry with A549 cells [2] and in the experiment with PC9 cells [5] was “apoptosis was activated” in each case. In addition, in experiment [4], the “effect on LLO production” value is on record as “blocked all LLO production”.
